Test results published in patent publication EP0256125A1, “MEANS FOR PREVENTING MICROBIOLOGICAL OVERGROWING OF HARD SURFACE” (priority 1985, dated 1987).

How the values were obtained:
Acremonium charticola = assay: Fungicidal activity, inhibition of mycelium growth on wort agar; type: cell-based; conditions: Acremonium charticola, 120 h, read-out: Hemmung des Myzeliums am 5. Tag des Wachstums, Acremonium charticola
From the text: (§1) Man prüfte die funguzide Aktivität von Zink-bis-(N-vi- nyloxyethyl)dithiocarbamat gegenüber den reinen Pilzkulturen: Gladosporium resinae, Cladosporium cladosporioides, Acremonium corvum, Acremonium charticola, Penicillium charlesii Smith, Walrotiela subiculesa, Geotrichum candidum Link, Oidium, Penicillium crysogenum. Die genannten Pilze wurden von den Oberflächen der Wände und Decken von Bierbrauereien und Werken für die Herstellung von alkoholfreien Getränken ausgeschieden.
(§2) […] In eine der Petri-Schalen wurde Nährboden mit 1 ml Azeton (Kontrolle) gegossen.
(§3) In 18 bis 20 Stunden nach dem Vergießen des Nährbodens in die Petri-Schalen führte man die Inokulation der reinen Pilzkultur durch, die vorher an einem Schräg-Würzeagar während 15 Tage gezüchtet wurden. Die Inkubation führte man bei einer Temperatur von 25 bis 27°C während 5 Tage durch. Danach wurde der Durchmesser der Pilzkolonien gemessen und der Prozentsatz der Hemmung des Wachstums des Myzeliums (S) nach der Abbott -Formel gezählt: [formula] worin dc Durchmesser der Pilzkolonien in Kontrolle ist, de =Durchmesser der Pilzkolonien in einer Schale mit dem Nährboden ist, der Zink-bis-(N-vinyloxyethyl)dithiocarbamat enthält.

Acremonium corvum = assay: as above; type: cell-based; conditions: 120 h, read-out: Hemmung des Myzeliums am 5. Tag des Wachstums, Acremonium corvum
From the text: as §1, §2, §3

[1] = system: Cladosporium cladosporioides; assay: as above; type: cell-based; conditions: Cladosporium cladosporioides, 120 h, read-out: Hemmung des Myzeliums am 5. Tag des Wachstums, Cladosporium cladosporioides
From the text: as §1, §2, §3

Cladosporium resinae = assay: as above; type: cell-based; conditions: Amorphotheca resinae, 120 h, read-out: Hemmung des Myzeliums am 5. Tag des Wachstums, Cladosporium resinae
From the text: as §1, §2, §3

Geotrichum candidum Link = assay: as above; type: cell-based
From the text: as §1, §2, §3

Oidium = assay: as above; type: cell-based
From the text: as §1, §2, §3

[2] = system: Penicillium charlesii Smith; assay: as above; type: cell-based; conditions: Penicillium charlesii, 120 h, read-out: Hemmung des Myzeliums am 5. Tag des Wachstums, Penicillium charlesii Smith
From the text: as §1, §2, §3

Penicillium chrysogenum = assay: as above; type: cell-based
From the text: as §1, §2, §3

Walrotiela subiculesa = assay: as above; type: cell-based; conditions: 120 h, read-out: Hemmung des Myzeliums am 5. Tag des Wachstums, Walrotiela subiculesa
From the text: as §1, §2, §3

p. Escherichiae = assay: Bactericidal activity, growth on agar medium; type: cell-based; conditions: 37°C, 5 Tage
Experimental: (§4) Die bakterizide Aktivität des Kalium N-(vinyloxyethyl)-dithiocarbamats gegenüber den Bakterien, die von der Oberfläche von Wänden und Decken der Produktionsräume von Brauereien und Fabriken zur Herstellunq von alkoholfreien Getränken ausgeschieden wurden und die zu p.p.Bacillus, Micrococcus, Pseudomonas, Escherichiae gehören, wurde geprüft.
(§5) Es wurden wäßrige Lösungen des genannten Stoffes verschiedener Konzentration hergestellt, die so berechnet wurde, daß bei Einführung von 1 ml der Lösung in 25 ml geschmolzenen agarisierten Nährboden (45-50°C) die Konzentration des Stoffes im Nährboden von 0,003 bis 0,5% betrug. In 18 bis 24 Stunden wurde auf die Oberfläche des Nährbodens 0,1 ml der wäßrigen Suspension der eintägigen reinen Bakterienkulturen aufgetragen, die am Fleisch-Pepton-Agar gezüchtet wurden. Die Suspension wurde gleichmäßig verteilt. In Kontrollschalen wurden 0,1 ml Wasser auf der Oberfläche des Närhbodens verteilt.
(§6) Die Inkubation führte man bei einer Temperatur von 37°C während 5 Tage durch.
(§7) Die effektive Wirkung des Stoffes wurde nach dem Auftreten des Bakterienwachstums an der Oberfläche des Nährbodens bewertet.

p.Bacillus = assay: Bactericidal activity, growth on agar medium; type: cell-based; conditions: 37°C, 5 Tage
Experimental: as §4, §5, §6, §7

p.Micrococcus = assay: Bactericidal activity, growth on agar medium; type: cell-based; conditions: 37°C, 5 Tage
Experimental: as §4, §5, §6, §7

p.Pseudomonas = assay: Bactericidal activity, growth on agar medium; type: cell-based; conditions: 37°C, 5 Tage
Experimental: as §4, §5, §6, §7

Bakterien = assay: Bactericidal activity, summary over all tested bacteria; type: cell-based
Experimental: as §4, §5, §6, §7

[3] = Storage stability (qualitative); type: physicochemical; conditions: result in words
[4] = Acute toxicity in white mice; conditions: mouse, in vivo, po
[5] = Solubility in solvents (qualitative)
[6] = Konzentration des Stoffes 0,00075 %
[7] = Konzentration des Stoffes 0,0015 %
[8] = Konzentration des Stoffes 0,003 %
[9] = Konzentration des Stoffes 0,006 %
[10] = Konzentration des Stoffes 0,012 %

C=COCCNC(=S)[S-].[K+] [Kalium-N-(vinyloxyethyl)dithiocarbamat]
0%: inhibition of growth at 0.00075 % (Penicillium chrysogenum; Penicillium chrysogenum, 120 h, Konzentration des Stoffes 0,00075 %, read-out: Hemmung des Myzeliums am 5. Tag des Wachstums, Penicillium chrysogenum)
100%: inhibition of growth at 0.0015 % (Acremonium charticola; [7]) | inhibition of growth at 0.003 % (Acremonium charticola; [8]) | inhibition of growth at 0.006 % (Acremonium charticola; [9]) | inhibition of growth at 0.012 % (Acremonium charticola; [10]) | inhibition of growth at 0.0015 % (Acremonium corvum; [7]) | inhibition of growth at 0.003 % (Acremonium corvum; [8]) | inhibition of growth at 0.006 % (Acremonium corvum; [9]) | inhibition of growth at 0.012 % (Acremonium corvum; [10]) | inhibition of growth [1, 6] | inhibition of growth at 0.0015 % [1, 7] | inhibition of growth at 0.003 % [1, 8] | inhibition of growth at 0.006 % [1, 9] | inhibition of growth at 0.012 % [1, 10] | inhibition of growth at 0.0015 % (Cladosporium resinae; [7]) | inhibition of growth at 0.003 % (Cladosporium resinae; [8]) | inhibition of growth at 0.006 % (Cladosporium resinae; [9]) | inhibition of growth at 0.012 % (Cladosporium resinae; [10]) | inhibition of growth at 0.012 % (Geotrichum candidum Link; Geotrichum candidum, 120 h, Konzentration des Stoffes 0,012 %, read-out: Hemmung des Myzeliums am 5. Tag des Wachstums, Geotrichum candidum Link) | Hemmung des Myzeliums am 5. Tag des Wachstums, Geotrichum candidum Link (Geotrichum candidum Link; [8]) | Hemmung des Myzeliums am 5. Tag des Wachstums, Geotrichum candidum Link (Geotrichum candidum Link; [9]) | inhibition of growth at 0.003 % (Oidium; 120 h, Konzentration des Stoffes 0,003 %, read-out: Hemmung des Myzeliums am 5. Tag des Wachstums, Oidium) | inhibition of growth at 0.006 % (Oidium; 120 h, Konzentration des Stoffes 0,006 %, read-out: Hemmung des Myzeliums am 5. Tag des Wachstums, Oidium) | inhibition of growth at 0.012 % (Oidium; 120 h, Konzentration des Stoffes 0,012 %, read-out: Hemmung des Myzeliums am 5. Tag des Wachstums, Oidium) | inhibition of growth at 0.012 % [2, 10] | inhibition of growth at 0.012 % (Penicillium chrysogenum; Penicillium chrysogenum, 120 h, Konzentration des Stoffes 0,012 %, read-out: Hemmung des Myzeliums am 5. Tag des Wachstums, Penicillium chrysogenum) | inhibition of growth at 0.0015 % (Walrotiela subiculesa; [7]) | inhibition of growth at 0.003 % (Walrotiela subiculesa; [8]) | inhibition of growth at 0.006 % (Walrotiela subiculesa; [9]) | inhibition of growth at 0.012 % (Walrotiela subiculesa; [10])
30%: inhibition of growth at 0.0015 % [2, 7] | Hemmung des Myzeliums am 5. Tag des Wachstums, Penicillium chrysogenum (Penicillium chrysogenum; [7])
1400 ± 350 mg/kg: LD50 [4]
90%: inhibition of growth (Acremonium charticola; [6]) | inhibition of growth at 0.006 % [2, 9] | inhibition of growth at 0.006 % (Penicillium chrysogenum; Penicillium chrysogenum, 120 h, Konzentration des Stoffes 0,006 %, read-out: Hemmung des Myzeliums am 5. Tag des Wachstums, Penicillium chrysogenum) | inhibition of growth at 0.00075 % (Walrotiela subiculesa; [6])
unlöslich: Löslichkeit im Diethylether ([5]; Diethylether)
94%: inhibition of growth (Acremonium corvum; [6])
70%: inhibition of growth (Cladosporium resinae; [6])
40%: Hemmung des Myzeliums am 5. Tag des Wachstums, Geotrichum candidum Link (Geotrichum candidum Link; [7]) | inhibition of growth at 0.00075 % (Oidium; 120 h, Konzentration des Stoffes 0,00075 %, read-out: Hemmung des Myzeliums am 5. Tag des Wachstums, Oidium)
lagerbeständig: Lagerbeständigkeit [3]
5%: inhibition of growth [2, 6]
teilweise: Löslichkeit im Alkohol ([5]; Alkohol (Ethylalkohol)) | Löslichkeit im Azeton ([5]; Azeton)
96%: Hemmung des Myzeliums am 5. Tag des Wachstums, Oidium (Oidium; [7])
gut löslich: Löslichkeit in Wasser ([5]; Wasser)
55%: inhibition of growth at 0.003 % [2, 8] | Hemmung des Myzeliums am 5. Tag des Wachstums, Penicillium chrysogenum (Penicillium chrysogenum; [8])
0,05%: Konzentration der Salze der N-(vinyloxyethyl)dithiocarbaminsäure (100%), die das Wachstum der Bakterien am 5. Tag des Wachstums hemmen, p. Escherichiae (p. Escherichiae) | Konzentration der Salze der N-(vinyloxyethyl)dithiocarbaminsäure (100%), die das Wachstum der Bakterien am 5. Tag des Wachstums hemmen, p.Bacillus (p.Bacillus) | Konzentration der Salze der N-(vinyloxyethyl)dithiocarbaminsäure (100%), die das Wachstum der Bakterien am 5. Tag des Wachstums hemmen, p.Micrococcus (p.Micrococcus) | Konzentration der Salze der N-(vinyloxyethyl)dithiocarbaminsäure (100%), die das Wachstum der Bakterien am 5. Tag des Wachstums hemmen, p.Pseudomonas (p.Pseudomonas) | Konzentration, die das Wachstum der Bakterien vollständig hemmte (Bakterien)
10%: inhibition of growth at 0.00075 % (Geotrichum candidum Link; Geotrichum candidum, 120 h, Konzentration des Stoffes 0,00075 %, read-out: Hemmung des Myzeliums am 5. Tag des Wachstums, Geotrichum candidum Link)
